This assay concerns the target T1, KCNQ2/3 channels (Homo sapiens, UniProt O43525+O43526).
T1 construct: expressed in transfected cells
Put plainly: Fluorescence assay using a voltage sensitive dye (fluorimetry). In kind it is cell-based. Particulars: CHO-K1 cells expressing KCNQ2/3 channels; for EC50: agonistic activity; for Emax / Fluorimetry % efficacy (retigabine 50 μM = 100%): retigabine 50 μM = 100%; for Emax: read-out: Fluorimetry % efficacy (retigabine 50 μM = 100%). Put shortly: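 Agonist EC50s come from the F2 vs F1 fluorescence comparison, F2 taken at the peak after KCl depolarisation (92 mM final) and F1 after 30 min compound exposure at room temperature. Assay uses KCNQ2/3-expressing CHO-K1 cells stained 45 min with a red voltage-sensitive dye in pH 7.4 ES buffer.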

Broadly, the EC50 is the concentration needed to bring the measured effect to its halfway point. Lower therefore signals an effect from little substance. For the molecule `O=C(NCc1ccc2c(c1)OCCO2)c1cccnc1SCCCc1ccc(F)cc1` [compound 137, N-(2,3-Dihydro-[1,4]benzodioxin-6-yl-methyl)-2-[3-(4-fluorophenyl)-propylsulfanyl]-pyridine-3-carboxylic acid amide], a half-maximal effect (EC50) was put at 366 nM and the Emax was determined as 93%.

On to `O=C(NCc1cccc(N2CCOCC2)c1)c1cccnc1SCCCc1ccc(F)cc1` [compound 138, 2-[3-(4-Fluorophenyl)-propylsulfanyl]-N-[(3-morpholin-4-yl-phenyl)-methyl]-pyridine-3-carboxylic acid amide], for which the half-maximal effective concentration (EC50) came out at 417 nM and the Emax amounted to 92%.

On to `O=C(NCc1ccc2c(c1)OCC2)c1cccnc1SCCCc1ccc(F)cc1` [compound 139, N-(2,3-Dihydro-benzofuran-6-yl-methyl)-2-[3-(4-fluorophenyl)-propylsulfanyl]-pyridine-3-carboxylic acid amide], for which the EC50 came to 101 nM and the Emax is 81%.

Take `O=C(NCc1cccc(-n2cccn2)c1)c1cccnc1SCCCc1ccc(F)cc1` [compound 140, 2-[3-(4-Fluorophenyl)-propylsulfanyl]-N-[[3-(1H-pyrazol-1-yl)-phenyl]-methyl]-pyridine-3-carboxylic acid amide]: a half-maximal effect (EC50) was put at 312 nM and the Emax came out at 88%.

Turning to `O=C(NCCCn1ccnn1)c1cccnc1SCCCc1ccc(F)cc1` [compound 141, 2-[3-(4-Fluorophenyl)-propylsulfanyl]-N-[3-(1H-[1,2,3]triazol-1-yl)-propyl]-pyridine-3-carboxylic acid amide], the EC50 is 12800 nM and the Emax stood at 86%.

Turning to `O=C(NCC1C2CCC1CC2)c1cccnc1SCCCc1ccc(F)cc1` (centres unmarked) [compound 142, N-(7-Bicyclo[2.2.1]heptanyl-methyl)-2-[3-(4-fluorophenyl)-propylsulfanyl]-pyridine-3-carboxylic acid amide], the EC50 turned out to be 97 nM and the Emax was 260%.

For the molecule `O=C(NCc1ccccn1)c1cccnc1SCCCc1ccc(F)cc1` [compound 143], the EC50 worked out at 1510 nM and the “Fluorimetry % efficacy (retigabine 50 μM = 100%)” value (“Fluorimetry % efficacy” for short) turned out to be 175%.

Consider `O=C(NCc1nccs1)c1cccnc1SCCCc1ccc(F)cc1` [compound 144, 2-[3-(4-Fluorophenyl)-propylsulfanyl]-N-(thiazol-2-yl-methyl)-pyridine-3-carboxylic acid amide], for which the EC50 stood at 815 nM and the Emax turned out to be 215%.

As to `O=C(NCc1cncs1)c1cccnc1SCCCc1ccc(F)cc1` [compound 145, 2-[3-(4-Fluorophenyl)-propylsulfanyl]-N-(thiazol-5-yl-methyl)-pyridine-3-carboxylic acid amide], the concentration for a half-maximal effect (EC50) stood at 1490 nM and the Emax is 174%.

For `O=C(NCc1ncco1)c1cccnc1SCCCc1ccc(F)cc1` [compound 146, 2-[3-(4-Fluorophenyl)-propylsulfanyl]-N-(oxazol-2-yl-methyl)-pyridine-3-carboxylic acid amide], the response was half-maximal at 2550 nM (EC50) and the Emax is 193%.

`Cc1ccnc(SCCCc2ccc(F)cc2)c1C(=O)NCc1cccs1` [compound 147]: the “Fluorimetry % efficacy” value came to 34%.

Turning to `Cc1ccnc(SCCCc2ccc(F)cc2)c1C(=O)NCCC(C)(C)C` [compound 148, N-(3,3-Dimethyl-butyl)-2-[3-(4-fluorophenyl)-propylsulfanyl]-4-methyl-pyridine-3-carboxylic acid amide], the EC50 is 1960 nM and the Emax amounted to 85%.

`CC(CCc1cccc(C(F)(F)F)c1)Sc1ncccc1C(=O)NCCC(C)(C)C` (centres unmarked) [compound 149, N-(3,3-Dimethyl-butyl)-2-[[1-methyl-3-[3-(trifluoromethyl)phenyl]-propyl]sulfanyl]-pyridine-3-carboxylic acid amide]: the EC50 was 93 nM and the Emax came to 181%.

Consider `O=C(NCc1ccc2cccnc2c1)c1cccnc1SCCCc1ccc(F)cc1` [compound 150, 2-[3-(4-Fluorophenyl)-propylsulfanyl]-N-(quinolin-7-yl-methyl)-pyridine-3-carboxylic acid amide], for which the EC50 came to 1490 nM and the Emax is 96%.

With `O=C(NCc1cccc(-c2ccccn2)c1)c1cccnc1SCCCc1ccc(F)cc1` [compound 151, 2-[3-(4-Fluorophenyl)-propylsulfanyl]-N-[(3-pyridin-2-yl-phenyl)-methyl]-pyridine-3-carboxylic acid amide], the EC50 came out at 667 nM and the Emax amounted to 95%.

As for `O=C(NCc1cccc(-c2cccnc2)c1)c1cccnc1SCCCc1ccc(F)cc1` [compound 152, 2-[3-(4-Fluorophenyl)-propylsulfanyl]-N-[(3-pyridin-3-yl-phenyl)-methyl]-pyridine-3-carboxylic acid amide], the EC50 turned out to be 1290 nM and the Emax is 89%.

Turning to `C[C@H](CCc1ccccc1)Sc1ncccc1C(=O)NCCC(C)(C)C` [compound 153, N-(3,3-Dimethyl-butyl)-2-[[(1R)-1-methyl-3-phenyl-propyl]sulfanyl]-pyridine-3-carboxylic acid amide], the EC50 was 1250 nM and the Emax stood at 155%.

In the case of `C[C@@H](CCc1ccccc1)Sc1ncccc1C(=O)NCCC(C)(C)C` [compound 154, N-(3,3-Dimethyl-butyl)-2-[[(1S)-1-methyl-3-phenyl-propyl]sulfanyl]-pyridine-3-carboxylic acid amide], it took 237 nM to reach a half-maximal effect (EC50) and the Emax came to 207%.

As for `CC(C)(C)CCNC(=O)c1cccnc1SC1CCCC1Cc1ccccc1` (centres unmarked) [compound 155, 2-[(2-Benzyl-cyclopentyl)sulfanyl]-N-(3,3-dimethyl-butyl)-pyridine-3-carboxylic acid amide], the EC50 was 657 nM and the Emax turned out to be 159%.

With `O=C(NCC1C2CCC1CC2)c1cccnc1SCCCc1cccc(C(F)(F)F)c1` (centres unmarked) [compound 156, N-(7-Bicyclo[2.2.1]heptanyl-methyl)-2-[3-[3-(trifluoromethyl)phenyl]-propylsulfanyl]-pyridine-3-carboxylic acid amide], the EC50 turned out to be 110 nM and the Emax was found to be 249%.

On to `O=C(NCCCn1cncn1)c1cccnc1SCCCc1ccc(F)cc1` [compound 157, 2-[3-(4-Fluorophenyl)-propylsulfanyl]-N-[3-(1H-[1,2,4]triazol-1-yl)-propyl]-pyridine-3-carboxylic acid amide], for which the Emax was found to be 88%.

For `O=C(NCc1nnco1)c1cccnc1SCCCc1ccc(F)cc1` [compound 158, 2-[3-(4-Fluorophenyl)-propylsulfanyl]-N-([1,3,4]oxadiazol-2-yl-methyl)-pyridine-3-carboxylic acid amide], the Emax came out at 30%.

Consider `O=C(NCc1cccc(-c2ccncc2)c1)c1cccnc1SCCCc1ccc(F)cc1` [compound 159, 2-[3-(4-Fluorophenyl)-propylsulfanyl]-N-[(3-pyridin-4-yl-phenyl)-methyl]-pyridine-3-carboxylic acid amide], for which a half-maximal effect (EC50) was put at 670 nM and the Emax was 113%.

In the case of `O=C(NCc1ccc2c(c1)N(CC1CC1)CCO2)c1cccnc1SCCCc1ccc(F)cc1` [compound 160, N-[[4-(Cyclopropyl-methyl)-3,4-dihydro-2H-[1,4]benzoxazin-6-yl]-methyl]-2-[3-(4-fluorophenyl)-propylsulfanyl]-pyridine-3-carboxylic acid amide], the EC50 is 228 nM and the Emax is 74%.

Consider `CCN1CCOc2ccc(CNC(=O)c3cccnc3SCCCc3ccc(F)cc3)cc21` [compound 161, N-[(4-Ethyl-3,4-dihydro-2H-[1,4]benzoxazin-6-yl)-methyl]-2-[3-(4-fluorophenyl)-propylsulfanyl]-pyridine-3-carboxylic acid amide], for which the midpoint of the response, the EC50, lay at 145 nM and the Emax was determined as 67%.

As to `CN1CCOc2ccc(CNC(=O)c3cccnc3SCCCc3ccc(F)cc3)cc21` [compound 162, 2-[3-(4-Fluorophenyl)-propylsulfanyl]-N-[(4-methyl-3,4-dihydro-2H-[1,4]benzoxazin-6-yl)-methyl]-pyridine-3-carboxylic acid amide], the EC50 was 166 nM and the Emax turned out to be 83%.

As for `CC(C)(CCNC(=O)c1cccnc1SCCCc1ccc(F)cc1)c1ccccc1` [compound 163, 2-[3-(4-Fluorophenyl)-propylsulfanyl]-N-(3-methyl-3-phenyl-butyl)-pyridine-3-carboxylic acid amide], the EC50 stood at 537 nM and the Emax came out at 89%.

In the case of `O=C(NCc1ccc(F)cc1)c1cccnc1SCCC(F)(F)c1cccc(C(F)(F)F)c1` [compound 165, 2-[[3,3-Difluoro-3-[3-(trifluoromethyl)phenyl]-propyl]sulfanyl]-N-[(4-fluorophenyl)-methyl]-pyridine-3-carboxylic acid amide], the EC50 is 30 nM and the Emax was found to be 119%.

On to `CC(C)(C)CCNC(=O)c1cccnc1SCCC(F)(F)c1cccc(C(F)(F)F)c1` [compound 166, 2-[[3,3-Difluoro-3-[3-(trifluoromethyl)phenyl]-propyl]sulfanyl]-N-(3,3-dimethyl-butyl)-pyridine-3-carboxylic acid amide], for which the EC50 turned out to be 46 nM and the Emax came to 206%.

As for `CC(C)(C)CCNC(=O)c1cccnc1SCC(=O)Cc1ccccc1` [compound 167], the midpoint of the response, the EC50, lay at 2710 nM and the “Fluorimetry % efficacy” value amounted to 77%.

On to `O=C(NCc1cccc(F)c1)c1cccnc1SCCC(F)(F)c1ccc(F)cc1` [compound 168, 2-[[3,3-Difluoro-3-(4-fluorophenyl)-propyl]sulfanyl]-N-[(3-fluorophenyl)-methyl]-pyridine-3-carboxylic acid amide], for which the EC50 came to 17 nM and the Emax is 110%.
